We go through one compound from patent publication US20110071220A1, “Use of Tetronic Acid Derivatives for Fighting Insects and Red Spider Mites by Watering on the Ground, Droplet Application or Immersion Application” (Bayer CropScience AG, priority 2008, published 2011).

Common to all, as to assay type: in vivo
For data set [1], the system named is whiteflies (Bemisia tabaci). In words: Bemisia tabaci test on cucumbers, drench application in rock wool. To be noted: 20 mg of ai/plant, days between application and infestation −11, mortality determined 18 days after infestation. The protocol: (§1) To produce a suitable solution, the product is mixed with water and diluted with water to the desired concentration. The desired amount of additive is added to the mixtures.
Cucumbers (Cucumis sativa) are cultivated in rock wool and infested with whiteflies (Bemisia tabaci). At the 2-leaf stage, the product solution in question is applied to the rock wool. The stated concentration refers to the amount of active compound per plant.
(§2) After the desired period of time, the effect in % is determined. 100% means that all the whiteflies have been killed; 0% means that none of the whiteflies have been killed.

In data set [2] the test system is whiteflies (Bemisia tabaci). In words: Bemisia tabaci test on tomatoes, drench application in rock wool. As to conditions: 5 mg of ai/plant; tomato plants in rock wool; days between application and infestation −11; mortality determined 25 days after infestation. The protocol: as §1
Tomato plants (Solanum lycopersicum) are cultivated in rock wool and infested with whiteflies (Bemisia tabaci). At the 2-leaf stage, the product solution in question is applied to the rock wool. The stated concentration refers to the amount of active compound per plant.
as §2

In data set [3] the test system is greenhouse red spider mite (Tetranychus urticae). In words: Tetranychus urticae test, soil application in rock wool (eggplants). As to conditions: 10 mg of ai/plant. The protocol:
To produce a suitable solution, the product is mixed with water and diluted with water to the desired concentration. The desired amount of additive is added to the mixtures. Eggplants (Solanum melongena) are cultivated in rock wool. At the 4-leaf stage, the product solution in question is applied to the rock wool. The stated concentration refers to the amount of active compound per plant.
At the desired point in time, the plants are infested with a mixed population of the greenhouse red spider mite (Tetranychus urticae).
After the desired period of time, the effect in % is determined. 100% means that all spider mites have been killed; 0% means that none of the spider mites have been killed.

Consider `Cc1cc(C)c(C2=C(OC(=O)CC(C)(C)C)C3(CCCC3)OC2=O)c(C)c1` [spiromesifen (II-2), spiromesifen], for which the Mortality in data set [1] is recorded as 0%; in data set [2] it was 80%; in data set [3] (days between application and infestation 14, mortality determined 14 days after infestation), 20%; in data set [3] (days between application and infestation −1, mortality determined 7 days after infestation), 30%; in data set [3] (days between application and infestation −1, mortality determined 14 days after infestation), 10%.
